Experimental data taken from PubChem BioAssay (NCI).
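Compound exposure: 48 hours, 5 concentrations, 96-well plates. TGI is the concentration that stops growth completely.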

How the values were obtained:
Assay in all cases: NCI-60 cell line screen, 48 h
HT29 colon = tested on: HT29 colon
SN12C renal = tested on: SN12C renal
OVCAR-8 ovarian = tested on: OVCAR-8 ovarian
NCI-H23 lung = tested on: NCI-H23 lung
SNB-78 CNS = tested on: SNB-78 CNS
UO-31 renal = tested on: UO-31 renal
NCI-H522 lung = tested on: NCI-H522 lung
OVCAR-3 ovarian = tested on: OVCAR-3 ovarian
SNB-19 CNS = tested on: SNB-19 CNS
XF 498 CNS = tested on: XF 498 CNS
NCI-H226 lung = tested on: NCI-H226 lung
K-562 leukemia = tested on: K-562 leukemia
DMS 114 small cell lung = tested on: DMS 114 small cell lung
CAKI-1 renal = tested on: CAKI-1 renal
M14 melanoma = tested on: M14 melanoma
CCRF-CEM leukemia = tested on: CCRF-CEM leukemia
TK-10 renal = tested on: TK-10 renal
KM20L2 colon = tested on: KM20L2 colon
MOLT-4 leukemia = tested on: MOLT-4 leukemia
RPMI-8226 leukemia = tested on: RPMI-8226 leukemia
COLO 205 colon = tested on: COLO 205 colon
ACHN renal = tested on: ACHN renal
HCT-116 colon = tested on: HCT-116 colon
HOP-18 NSCLC = tested on: HOP-18 NSCLC
SF-295 CNS = tested on: SF-295 CNS
RXF 393 renal = tested on: RXF 393 renal
SF-539 CNS = tested on: SF-539 CNS
HOP-62 NSCLC = tested on: HOP-62 NSCLC
HCT-15 colon = tested on: HCT-15 colon
DLD-1 colon = tested on: DLD-1 colon
U251 CNS = tested on: U251 CNS
LXFL 529 NSCLC = tested on: LXFL 529 NSCLC
NCI-H460 lung = tested on: NCI-H460 lung
SK-MEL-2 melanoma = tested on: SK-MEL-2 melanoma
SW-620 colon = tested on: SW-620 colon
OVCAR-5 ovarian = tested on: OVCAR-5 ovarian
A549 NSCLC = tested on: A549 NSCLC
786-0 renal = tested on: 786-0 renal
UACC-62 melanoma = tested on: UACC-62 melanoma
IGROV1 ovarian = tested on: IGROV1 ovarian
SNB-75 CNS = tested on: SNB-75 CNS
SK-MEL-5 melanoma = tested on: SK-MEL-5 melanoma
DMS 273 small cell lung = tested on: DMS 273 small cell lung
OVCAR-4 ovarian = tested on: OVCAR-4 ovarian
UACC-257 melanoma = tested on: UACC-257 melanoma
MALME-3M melanoma = tested on: MALME-3M melanoma
KM12 colon = tested on: KM12 colon
SK-MEL-28 melanoma = tested on: SK-MEL-28 melanoma
SF-268 CNS = tested on: SF-268 CNS
HOP-92 NSCLC = tested on: HOP-92 NSCLC
A498 renal = tested on: A498 renal
SR leukemia = tested on: SR leukemia
SK-OV-3 ovarian = tested on: SK-OV-3 ovarian
M19-MEL melanoma = tested on: M19-MEL melanoma
HL-60(TB) leukemia = tested on: HL-60(TB) leukemia
LOX IMVI melanoma = tested on: LOX IMVI melanoma
EKVX NSCLC = tested on: EKVX NSCLC
RXF-631 renal = tested on: RXF-631 renal
HCC-2998 colon = tested on: HCC-2998 colon

OCn1nc2c(C3OCCO3)cc3ccccc3n2c1=S
TGI (HT29 colon): > 100 µM
TGI (SN12C renal): > 100 µM
TGI (OVCAR-8 ovarian): > 100 µM
TGI (NCI-H23 lung): > 100 µM
TGI (SNB-78 CNS): > 100 µM
TGI (UO-31 renal): > 100 µM
TGI (NCI-H522 lung): > 100 µM
TGI (OVCAR-3 ovarian): > 100 µM
TGI (SNB-19 CNS): > 100 µM
TGI (XF 498 CNS): > 100 µM
TGI (NCI-H226 lung): > 100 µM
TGI (K-562 leukemia): > 100 µM
TGI (DMS 114 small cell lung): > 100 µM
TGI (CAKI-1 renal): > 100 µM
TGI (M14 melanoma): > 100 µM
TGI (CCRF-CEM leukemia): > 100 µM
TGI (TK-10 renal): > 100 µM
TGI (KM20L2 colon): > 100 µM
TGI (MOLT-4 leukemia): > 100 µM
TGI (RPMI-8226 leukemia): > 100 µM
TGI (COLO 205 colon): > 100 µM
TGI (ACHN renal): > 100 µM
TGI (HCT-116 colon): > 100 µM
TGI (HOP-18 NSCLC): > 100 µM
TGI (SF-295 CNS): > 100 µM
TGI (RXF 393 renal): > 100 µM
TGI (SF-539 CNS): > 100 µM
TGI (HOP-62 NSCLC): > 100 µM
TGI (HCT-15 colon): > 100 µM
TGI (DLD-1 colon): > 100 µM
TGI (U251 CNS): > 100 µM
TGI (LXFL 529 NSCLC): > 100 µM
TGI (NCI-H460 lung): > 100 µM
TGI (SK-MEL-2 melanoma): > 100 µM
TGI (SW-620 colon): > 100 µM
TGI (OVCAR-5 ovarian): > 100 µM
TGI (A549 NSCLC): > 100 µM
TGI (786-0 renal): > 100 µM
TGI (UACC-62 melanoma): > 100 µM
TGI (IGROV1 ovarian): > 100 µM
TGI (SNB-75 CNS): > 100 µM
TGI (SK-MEL-5 melanoma): > 100 µM
TGI (DMS 273 small cell lung): > 100 µM
TGI (OVCAR-4 ovarian): > 100 µM
TGI (UACC-257 melanoma): > 100 µM
TGI (MALME-3M melanoma): > 100 µM
TGI (KM12 colon): > 100 µM
TGI (SK-MEL-28 melanoma): > 100 µM
TGI (SF-268 CNS): > 100 µM
TGI (HOP-92 NSCLC): > 100 µM
TGI (A498 renal): > 100 µM
TGI (SR leukemia): > 100 µM
TGI (SK-OV-3 ovarian): > 100 µM
TGI (M19-MEL melanoma): > 100 µM
TGI (HL-60(TB) leukemia): > 100 µM
TGI (LOX IMVI melanoma): > 100 µM
TGI (EKVX NSCLC): > 100 µM
TGI (RXF-631 renal): > 100 µM

CC(=O)Nc1ccccc1S(=O)(=O)c1ccccc1
TGI (HT29 colon): > 100 µM
TGI (SN12C renal): > 100 µM
TGI (OVCAR-8 ovarian): > 100 µM
TGI (NCI-H23 lung): > 100 µM
TGI (SNB-78 CNS): > 100 µM
TGI (UO-31 renal): > 100 µM
TGI (NCI-H522 lung): > 100 µM
TGI (OVCAR-3 ovarian): > 100 µM
TGI (SNB-19 CNS): > 100 µM
TGI (XF 498 CNS): > 100 µM
TGI (NCI-H226 lung): > 100 µM
TGI (K-562 leukemia): > 100 µM
TGI (DMS 114 small cell lung): > 100 µM
TGI (CAKI-1 renal): > 100 µM
TGI (M14 melanoma): > 100 µM
TGI (CCRF-CEM leukemia): > 100 µM
TGI (TK-10 renal): > 100 µM
TGI (KM20L2 colon): > 100 µM
TGI (MOLT-4 leukemia): > 100 µM
TGI (RPMI-8226 leukemia): > 100 µM
TGI (COLO 205 colon): > 100 µM
TGI (ACHN renal): > 100 µM
TGI (HCT-116 colon): > 100 µM
TGI (HOP-18 NSCLC): > 100 µM
TGI (SF-295 CNS): > 100 µM
TGI (RXF 393 renal): > 100 µM
TGI (SF-539 CNS): > 100 µM
TGI (HOP-62 NSCLC): > 100 µM
TGI (HCT-15 colon): > 100 µM
TGI (DLD-1 colon): > 100 µM
TGI (U251 CNS): > 100 µM
TGI (LXFL 529 NSCLC): > 100 µM
TGI (NCI-H460 lung): > 100 µM
TGI (SK-MEL-2 melanoma): > 100 µM
TGI (SW-620 colon): > 100 µM
TGI (OVCAR-5 ovarian): 5.65 µM
TGI (A549 NSCLC): > 100 µM
TGI (786-0 renal): > 100 µM
TGI (UACC-62 melanoma): > 100 µM
TGI (IGROV1 ovarian): > 100 µM
TGI (SNB-75 CNS): > 100 µM
TGI (SK-MEL-5 melanoma): > 100 µM
TGI (DMS 273 small cell lung): > 100 µM
TGI (OVCAR-4 ovarian): > 100 µM
TGI (UACC-257 melanoma): > 100 µM
TGI (MALME-3M melanoma): > 100 µM
TGI (KM12 colon): > 100 µM
TGI (SK-MEL-28 melanoma): > 100 µM
TGI (SF-268 CNS): > 100 µM
TGI (HOP-92 NSCLC): > 100 µM
TGI (A498 renal): > 100 µM
TGI (SK-OV-3 ovarian): > 100 µM
TGI (M19-MEL melanoma): > 100 µM
TGI (HL-60(TB) leukemia): > 100 µM
TGI (HCC-2998 colon): > 100 µM
TGI (LOX IMVI melanoma): > 100 µM
TGI (EKVX NSCLC): > 100 µM
TGI (RXF-631 renal): > 100 µM
